In patent publication US20100303727A1, “OPTICAL IMAGING AGENTS” (priority 2007, published 2010):
Read-outs that look alike come from different tables or passages of the source. Bridge positions count the residues as written; N and C are the ends. Peptide text beside a SMILES is read from it. * marks the point of attachment. X3 = CC[N+]1=C(/C=C/C=C/C=C2/N(CCCCCC(=O)*)c3ccc(S(=O)(=O)O)cc3C2(C)C)C(C)(C)c2cc(S(=O)(=O)[O-])ccc21; X1 = C[N+]1=C(/C=C/C=C/C=C2/N(CCCCCC(=O)*)c3ccccc3C2(C)C)C(C)(C)c2cc(S(=O)(=O)[O-])ccc21; X2 = NC(=O)COCC(=O)NCCOCCOCCOCCN*

Columns and labels:
αVβ3 receptor = target: T1, αVβ3 receptor (Homo sapiens, UniProt P05106+P06756); assay: Competition assay using 125I-echistatin on EA-Hy926 membranes; format: binding; conditions: for Ki: competition with 125I-Echistatin, EA-Hy926 membranes
T1 construct: endogenous in cells; host or cells: EA-Hy926 human endothelial cell line (membrane preparation)
Method: A classical competition assay using ^125I-echistatin was performed in order to check the affinity (Ki) of the RGD-Cy^D conjugates (Compounds 1 to 8) towards membranes expressing. the αVβ3 receptor. Ki was determined in receptor competition studies with membranes prepared from human endothelial cells. Membranes from the human endothelial adenocarcinoma cell line EA-Hy926 that express several integrins including αVβ3 were prepared and used as a receptor source. Competitive binding of ^125I-Echistatin, a known […] for several integrins including αVβ3, was carried out with varying concentrations of cold compounds.

collagen = format: binding; conditions: 1 h 37° C., Ex646/Em678 nm
Method: Commercially available collagen-covered 96-well plates were used (BD Biocoat, Art. code BDAA 356649, Becton, Dickinson Biosciences, Two Oak Park, Bedford, Mass. 01730). Triplicate wells were made of each test Compound at 30 nM, 100 nM or 300 nM (1000 nM included in some cases), and the plate was incubated in the plate reader for one hour at 37° C. with shaking every other minute*. The volume in each well was 200 μl. At the end of the incubation, 150 μl supernatant was transferred to an untreated 96-well plate, and the fluorescence was read with excitation at 646 nm and emission at 678 nm wavelengths.
For calculation of the degree of binding, the fluorescence from the supernatants was compared to the fluorescence from 150 μl aliquots with the same initial concentrations. In all cases, median values from 3 wells were used.

HT-29 tumour = assay: In vivo optical imaging of HT-29 tumour-bearing mice; conditions: mean tumour region intensity divided by mean muscle region intensity, iv injection, HT-29 tumours s.c.
Method: Female BALB c/A nude (Bom) mice were used in the study. The use of the animals was approved by the local ethics committee. As the animals were immunocompromised, they were housed in individually ventilated cages (IVC, Scanbur BK) supplied with HEPA filtered air. The animals had ad libitum access to “Rat and Mouse nr. 3 Breeding” diet (Scanbur BK) and tap water acidified by addition of HCl to a molar concentration of 1 mM (pH 3.0). In order to protect the animals during handling and all procedures before the imaging procedure, they were handled under conditions of laminar HEPA filtered air.
The animals were allowed an acclimatisation period of at least 5 days before being injected s.c. with HT-29 tumour cell suspensions at two sites (shoulder and left, lower flank) with a nominal dose of 2.5-3×10^6 cells per injection in a volume of 100 μl. The s.c. injections were performed under light gas anaesthesia. […]
Image analysis was performed with custom written MATLAB software. […] The mean signal of the pixel values inside each region was calculated. The mean signal and pixel standard deviation was calculated.
Based on the in-vitro data from example 7-10, in-vivo results from compounds 1, 2, 4 and 6 are presented. Tumour enhancement is quantified by a target to background ratio (TBR) defined as the ratio of the mean tumour region intensity divided by the mean muscle region intensity.

[1] = human, plasma
[2] = format: in vitro ADME, mouse
Method: Mouse plasma (non-sterile) was purchased from Rockland, Pa., USA. This plasma is stabilized with heparin, sodium. The substance was dissolved in PBS and plasma, respectively, at concentrations 0.1/0.2 mg/mL. Both blank samples (solvent without peptide) and peptide dissolved in plasma/PBS were incubated at 37° C. for about 4 hours. After incubation the proteins were removed by ultrafiltration using non-sterile Ultrafree®-MC centrifuge tubes with filter insert from Millipore Co. (Amicon). The cut-off of the filters was 30,000 NMWL Prior to centrifugation the plasma samples were diluted 1:1 with water. The samples were analysed by HPLC using visible detection.
The substance was dissolved in PBS, concentration 0.1 mg/mL. The fluorescence intensity of the ultracentrifuged samples was measured using Fluoroskan Ascent® FL equipped with plate reader (Thermo Labsystems Oy, Finland). Excitation wavelength was at 646 nm and emission wavelength at 678 nm and measurements were performed at two different concentrations of the substance, 6.5 μg/mL and 23 μg/mL plasma.
The Ultimate 3000 micro liquid chromatograph equipped with UV-Vis detector was applied in this study. The solution has an intense bluish colour and absorbs well at 650 nm.
The chromatography was performed on an X-Terra RP18 column 2.1×150 mm, 3.5 μm particles from Waters using a gradient elution of acetonitrile (ACN) and phosphate buffer (20 mM, pH 7.1); 650 nm detection; flow rate 0.1 mL/min; injection volume: 5 μL. Gradient: initiated at 22% ACN in buffer, increasing linearly to 50% ACN over 12 min; rapid linear increase of gradient to 90% ACN for 2 min followed; then equilibration to the starting mixture. Total analysis time was 20 min, with a retention time for the main peak of ˜9 min. Degradation/impurities were reported as changes in purity of the main peak.

Row | SMILES | Ki (αVβ3 receptor) [nM] | Collagen binding (% bound) (collagen; initial conc. 30 nM) [%] | Collagen binding (% bound) (collagen; initial conc. 100 nM) [%] | Collagen binding (% bound) (collagen; initial conc. 300 nM) [%] | Target to background ratio (TBR) (HT-29 tumour) | PPB (ranking in words) [1] | % main peak area (after 4 h incubation in mouse plasma) [2] [%] | Collagen binding (% bound) (collagen; initial conc. 1000 nM) [%] | Ki (in words) (αVβ3 receptor; summary of Example 10)
1 | CC[N+]1=C(/C=C/C=C/C=C2/N(CCCCCC(=O)NCCCC[C@@H]3NC(=O)CSC[C@@H](C(=O)NCCOCCOCCOCCNC(=O)COCC(N)=O)NC(=O)[C@H](Cc4ccccc4)NC(=O)[C@@H]4CSSC[C@H](NC3=O)C(=O)N[C@@H](CCCNC(=N)N)C(=O)NCC(=O)N[C@@H](CC(=O)O)C(=O)N4)c3ccc(S(=O)(=O)O)cc3C2(C)C)C(C)(C)c2cc(S(=O)(=O)[O-])ccc21 [Compound 1, RGD-[Cy5(2)] Dye Conjugate] ({CH2CO}-K(X3)CRGDCFC-X2; disulfide 2-6; thioether N-8) | 1.9 |  |  |  |  |  |  |  | 
2 | CC[N+]1=C(/C=C/C=C/C=C2/N(CCCCCC(=O)NCCCC[C@@H]3NC(=O)CSC[C@@H](C(=O)NCCOCCOCCOCCNC(=O)COCC(N)=O)NC(=O)[C@H](CCCNC(=N)N)NC(=O)[C@@H]4CSSC[C@H](NC3=O)C(=O)NCC(=O)N[C@@H](CC(=O)O)C(=O)N[C@@H](Cc3ccccc3)C(=O)N4)c3ccc(S(=O)(=O)O)cc3C2(C)C)C(C)(C)c2cc(S(=O)(=O)[O-])ccc21 [Compound 2, neg-RGD-[Cy5(2)] Dye Conjugate] ({CH2CO}-K(X3)CGDFCRC-X2; disulfide 2-6; thioether N-8) |  | 87 | 81.1 | 83 | 1.14 |  |  |  | 
3 | C[N+]1=C(/C=C/C=C/C=C2/N(CCCCCC(=O)NCCCC[C@@H]3NC(=O)CSC[C@@H](C(=O)NCCOCCOCCOCCNC(=O)COCC(N)=O)NC(=O)[C@H](Cc4ccccc4)NC(=O)[C@@H]4CSSC[C@H](NC3=O)C(=O)N[C@@H](CCCNC(=N)N)C(=O)NCC(=O)N[C@@H](CC(=O)O)C(=O)N4)c3ccccc3C2(C)C)C(C)(C)c2cc(S(=O)(=O)[O-])ccc21 [Compound 3, RGD-Cy5(1)) Dye Conjugate] ({CH2CO}-K(X1)CRGDCFC-X2; disulfide 2-6; thioether N-8) | 2.6 |  |  |  |  | highest PPB |  |  | 
4 | CC1(CCCCS(=O)(=O)O)C(/C=C/C=C/C=C2/N(CCCCCC(=O)NCCCC[C@@H]3NC(=O)CSC[C@@H](C(=O)NCCOCCOCCOCCNC(=O)COCC(N)=O)NC(=O)[C@H](Cc4ccccc4)NC(=O)[C@@H]4CSSC[C@H](NC3=O)C(=O)N[C@@H](CCCNC(=N)N)C(=O)NCC(=O)N[C@@H](CC(=O)O)C(=O)N4)c3ccc(S(=O)(=O)O)cc3C2(C)C)=[N+](CCCCS(=O)(=O)O)c2ccc(S(=O)(=O)O)cc21 (stereo partly drawn) [Compound 4, RGD-Cy5** Dye Conjugate] | 1.8 |  |  |  |  | lowest | 100 |  | 
5 | CC1(CCCCS(=O)(=O)O)C(/C=C/C=C/C=C2\N(CCCCCC(=O)NCCCC[C@@H]3NC(=O)CSC[C@@H](C(=O)NCCOCCOCCOCCNC(=O)COCC(N)=O)NC(=O)[C@H](Cc4ccccc4)NC(=O)[C@@H]4CSSC[C@H](NC3=O)C(=O)N[C@@H](CCCNC(=N)N)C(=O)NCC(=O)N[C@@H](CC(=O)O)C(=O)N4)c3ccc(S(=O)(=O)O)cc3C2(C)CCCCS(=O)(=O)O)=[N+](Cc2ccccc2)c2ccc(S(=O)(=O)[O-])cc21 (stereo partly drawn) [Compound 5] |  | 83.6 | 96.1 | 50.9 |  |  | 46 | 30.4 | 
6 | CC1(C)C(/C=C/C=C/C=C2/N(CCCS(=O)(=O)O)c3ccc(S(=O)(=O)O)cc3C2(C)CCCCCC(=O)NCCCC[C@@H]2NC(=O)CSC[C@@H](C(=O)NCCOCCOCCOCCNC(=O)COCC(N)=O)NC(=O)[C@H](Cc3ccccc3)NC(=O)[C@@H]3CSSC[C@H](NC2=O)C(=O)N[C@@H](CCCNC(=N)N)C(=O)NCC(=O)N[C@@H](CC(=O)O)C(=O)N3)=[N+](CCCS(=O)(=O)O)c2ccc(S(=O)(=O)O)cc21 (stereo partly drawn) [Compound 6, RGD-Alexa 647 Dye Conjugate] | 1.6 |  |  |  |  | lowest | 100 |  | 
7 | CC1(CCCCS(=O)(=O)[O-])C(/C=C/C=C/C=C2\N(CCCCS(=O)(=O)O)c3c(F)c(F)c(F)c(F)c3C2(C)CCCCS(=O)(=O)O)=[N+](CCCCCC(=O)NCCCC[C@@H]2NC(=O)CSC[C@@H](C(=O)NCCOCCOCCOCCNC(=O)COCC(N)=O)NC(=O)[C@H](Cc3ccccc3)NC(=O)[C@@H]3CSSC[C@H](NC2=O)C(=O)N[C@@H](CCCNC(=N)N)C(=O)NCC(=O)N[C@@H](CC(=O)O)C(=O)N3)c2c(F)c(F)c(F)c(F)c21 (stereo partly drawn) [Compound 7] | 7.4 |  |  |  |  | highest PPB | 70 |  | slightly higher Ki value
8 | CCN1\C(=C/C=C/C=C/C2=[N+](CCCCCC(=O)NCCOCCOCCOCCNC(=O)COCC(=O)NCCCC[C@@H]3NC(=O)CSC[C@@H](C(=O)NCCOCCOCCOCCNC(=O)COCC(N)=O)NC(=O)[C@H](Cc4ccccc4)NC(=O)[C@@H]4CSSC[C@H](NC3=O)C(=O)N[C@@H](CCCNC(=N)N)C(=O)NCC(=O)N[C@@H](CC(=O)O)C(=O)N4)c3ccc(S(=O)(=O)[O-])cc3C2(C)C)C(C)(C)c2cc(S(=O)(=O)O)ccc21 [Compound 8] |  | 92.1 | 85.9 | 56.7 |  |  | 93 | 32.7 | 
